Columns and labels:
[1] = tested on: endogenous mouse Hdh allele; assay: Western immunoblot of endogenous mouse htt expression in PNA-treated R6/1 mice; type: in vivo; settings: any tissue examined (striatum, liver), any tested time point (4 or 6 days)
Procedure: Cannulation and microsurgery—method 1: B6CBA, R6/1, and R6/2 mice were obtained from The Jackson Laboratory (Bar Harbor, Me.). Mice were anesthetized via intraperitoneal (i.p.) injection with 100 mg/kg of a ketamine/xylazine solution containing 8 mg/mL ketamine and 1 mg/mL xylazine in 0.9% saline. Once anesthetized, each mouse was cannulated. Each anesthetized mouse was placed in a Stoelting Stereotaxic Frame with a mouse adapter (Stoelting Instruments, Wood Dale, Ill.). An incision was made using a scalpel, and the skin and tissue were pulled back with swabs to reveal the skull. The cannulation site was positioned for optimum access to the ventricle, at coordinates AP −0.2 mm, Horiz −1 mm from bregma. A cannula entry port and two bone screw ports were opened in the skull using a Dremel Flex Shaft Drill (Stoelting Instruments) with a 2.1 mm burr for the guide cannula port and a 0.7 mm burr for the bone screws (Fine Science Tools, Foster City, Calif.). Two 4.0 mm long bone screws (0.85 diameter) were placed far enough into the bone screw ports to fasten securely. […]
Following the treatment period, mice were anesthetized with ether and sacrificed by cervical dislocation. […] Following centrifugation, the supernatants were removed and protein concentrations were quantified by Bradford assays using a BSA standard. […]

GAPDH = assay: Western immunoblot of GAPDH (non-targeted gene) in PNA-treated R6/1 mice; type: in vivo, mouse; settings: any animal tested
Procedure: Following the treatment period, mice were anesthetized with ether and sacrificed by cervical dislocation. Whole brains and livers were removed and placed in 0.9% saline. Striatum tissue was dissected from whole brains, and liver tissue was finely minced. The tissues were placed in separate 2 mL microfuge tubes on dry ice and then suspended in 20 volumes of RIPA buffer (50 mM Tris pH 8, 150 mM NaCl, 1 mM EDTA, 1 mM EGTA, 0.5% sodium deoxycholate, 0.1% SDS, 1% TritonX-100, 2 μg/mL leupeptin, 2 μg/mL aprotinin, 1 μg/mL pepstatin, 1 mM phenylmethylsulfonylfluoride) per gram of tissue. Suspended tissues were homogenized by sonication, and the homogenates were clarified by centrifugation at 12,000×g for 20 minutes at 4° C. Following centrifugation, the supernatants were removed and protein concentrations were quantified by Bradford assays using a BSA standard.
Immunoblotting: Supernatants from the tissue homogenates were mixed with 1/6 volume of 6×SDS sample buffer (350 mM Tris pH 6.8, 10% SDS, 30% glycerol, 15% 2-mercaptoethanol, 0.012% bromophenol blue). Equal amounts of protein were directly loaded onto 10% acrylamide/0.05% bisacrylamide gels without heat denaturation. […] Protein bands were detected on film by chemiluminescence. […]

mice = assay: Toxicity observation (behavior, weight, motor function) during intraventricular PNA treatment; type: in vivo; settings: 1.0 μL (25 μg/μL) into the ventricle every other day
Procedure: Animal treatment and tissue preparation: Aliquots of 1.0 μL (25 μg/μL) of a PNA oligomer specific for the expanded human HD allele (HDs) or a scrambled control PNA (HDscr) were administered into the ventricle every other day by injection via the cannula.

Which results are given for “HDscr: scrambled control PNA oligomer, 5′-GCAGCGGCGGTCCT-3′ (SEQ ID NO:4) (all peptide nucleic acid (PNA)) [reference compound]”?
effect on expression of the endogenous mouse Hdh allele [1]: Neither HDs nor HDscr had any effect; inhibition of non-targeted genes such as GAPDH (GAPDH): No measurable inhibition; toxicity as measured by weight or motor function relative to untreated animals (mice): no effects of toxicity

Source: US20040009899A1, “Treating dominant disorders” (priority 2002, published 2004)
